Assay results taken from patent US5459129A, “Condensed heterocyclic compounds, their production and use” (Takeda Chemical Industries, Ltd., priority 1990, dated 1995).

Columns and labels:
[1] = system: Meth A fibrosarcoma (Meth A) cells; test: Inhibiting action against growth of Meth A fibrosarcoma cells in vitro; type: cell-based; settings: 72 hours culture, Coulter counter, read-out: IC50 (concentration required for decreasing the number of cells in the untreated control group by 50%)
Method: Meth A cells (2×10^4 /ml) prepared by a conventional method were inoculated into each well of the 12-microwell plate (2.0 ml in a well), and subjected to standing culture at 37° C. under 5% CO2. The compounds obtained in Working Examples dissolved at appropriate concentrations were diluted to 2-10 times stepwise with an MEM (Nissui Pharmaceutical Co., Ltd.) solution, to and the resulting dilutions were added to the culture medium. The medium was again subjected to standing culture at 37° C. under 5% CO2 for 72 hours. Then, the total number of cells at each concentration was measured by Coulter counter (Coulter Electronic, Florida in U.S.A.), and the average value of the cells in three wells was expressed by the number of cells per milliliter.
The concentrations of the respective compounds required for decreasing the number of cells in the untreated control group by 50% was made IC50 of the respective compounds.

[2] = target: T1, 5-aminoimidazole-4-carboxyamide ribonucleotide transformylase (AICARTF) (Homo sapiens, UniProt P31939); test: Measurement of AICARTF inhibiting action; type: biochemical; settings: AICARTF prepared from CCRF-CEM human lymphoblast leukemia cells; absorbance at 298 nm for 15 minutes; read-out: IC50 AICARTF (concentration required for 50% inhibiting the activity of AICARTF)
T1 construct: AICARTF was prepared from CCRF-CEM human lymphoblast leukemia cells; endogenous in cells; host or cells: CCRF-CEM human lymphoblast leukemia cells
T1 sequence (P31939 whole entry): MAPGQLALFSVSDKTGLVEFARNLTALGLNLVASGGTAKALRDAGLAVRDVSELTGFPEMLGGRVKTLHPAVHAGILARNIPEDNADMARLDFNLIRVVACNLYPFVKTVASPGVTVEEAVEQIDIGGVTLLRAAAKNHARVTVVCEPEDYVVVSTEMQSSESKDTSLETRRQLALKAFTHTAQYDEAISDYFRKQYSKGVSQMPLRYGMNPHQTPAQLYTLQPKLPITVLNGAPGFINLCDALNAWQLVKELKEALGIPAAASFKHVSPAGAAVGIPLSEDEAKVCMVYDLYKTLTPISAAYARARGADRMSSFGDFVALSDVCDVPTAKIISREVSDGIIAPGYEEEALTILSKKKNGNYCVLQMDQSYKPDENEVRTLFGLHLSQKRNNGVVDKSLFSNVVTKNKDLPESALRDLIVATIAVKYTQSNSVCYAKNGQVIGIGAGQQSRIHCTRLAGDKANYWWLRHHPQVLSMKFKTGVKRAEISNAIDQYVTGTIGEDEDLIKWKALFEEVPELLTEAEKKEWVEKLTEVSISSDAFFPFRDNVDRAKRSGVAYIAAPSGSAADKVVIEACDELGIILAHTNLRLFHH
Method: AICARTF was prepared from CCRF-CEM human lymphoblast leukemia cells by partially modifying the method described in Biochemistry 20 337 (1981), S. J. Benkovic, et al.
The enzymic reaction was conducted by adding the compounds of various concentrations in Working Examples to 0.95 ml of a solution consisting of a […] Tris.HCl buffer solution (pH 7.4), 5 μM 2-mercaptoethanol,25 μM potassium chloride, 0.1 μM (-)-10-formyl tetrahydrofolic acid and AICARTF, and, before starting the reaction, 0.05 ml of 1 mM 5-aminoimidazole-4-carboxylamide ribonucleotide.
The UV spectrum was measured at 298 nm for 15 minutes at the interval of 15 seconds to evaluate by the increase of absorbance due to the production of tetrahydrofolic acid to determine the concentration required for 50% inhibiting the activity of AICARTF (IC50).

[3] = target: T2, thymidylate acid synthase (TS) (Mus musculus, UniProt P07607); test: Determination of TS inhibiting action; type: biochemical; settings: roughly refined TS fraction from Meth A fibrosarcoma cells; [3H]dUMP, 1 hour at 37° C.; read-out: IC50 TS (concentration required for 50% inhibiting the TS activity)
T2 construct: endogenous in cells; host or cells: Meth A fibrosarcoma cells (sonicated; 100,000 x g supernatant)
T2 sequence (P07607 whole entry): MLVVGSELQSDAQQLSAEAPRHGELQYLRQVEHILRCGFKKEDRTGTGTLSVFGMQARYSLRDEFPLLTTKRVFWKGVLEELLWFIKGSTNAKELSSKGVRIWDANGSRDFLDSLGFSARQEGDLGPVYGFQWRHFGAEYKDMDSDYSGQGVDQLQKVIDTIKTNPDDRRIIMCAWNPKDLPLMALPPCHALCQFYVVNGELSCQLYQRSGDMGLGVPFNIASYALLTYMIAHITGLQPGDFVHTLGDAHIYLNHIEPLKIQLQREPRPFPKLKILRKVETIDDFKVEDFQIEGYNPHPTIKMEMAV
Method: A roughly refined fraction of TS was prepared from Meth A fibrosarcoma cells serially cultivated in vitro. For culturing the cells, Eagle's minimum essential medium containing 10% (v/v) bovine fetal serum [MEM; Nissui Pharmaceutical Co. Ltd.] was used. The cells in logarithmic growth were recovered and washed twice with a physiological aqueous saline solution buffered with phosphate, which was then suspended in 0.2M sucrose, 0.01M Tris.HCl buffer solution (pH 7.5). The cells were destroyed by ultrasonic wave, and the suspension was subjected to centrifugation (100,000×g), then the supernatant was collected. Using bovine γ-groblin as the standard protein, the protein concentration was measured by using a protein.dye reagent (Bio-Rad), so that the protein concentration was adjusted to 10 mg/ml.
Enzymic reaction was conducted by partially modifying the method described in Biochemistry 5, 3546 (1966). The composition of the reaction medium was as follows; 0.058% (v/v) formaldehyde, 6.78 mM sodium fluoride, 0.2 mM 2-mercapto ethanol, 6.24 mg/ml bovine serum albumin, 80 μM 2'-deoxyuridine-5'-1 phosphoric acid (dUMP), 80 μM tetrahydrofolic acid, 2 mg/ml roughly refined TS fraction and 0.173M Tris.HCl buffer solution (pH 7.5). To the reaction medium were added the compounds of various concentrations obtained in Working Examples. 540 KBg of [^3 H] dUMP relative to 50 μl of the ultimate reaction medium was added, and the reaction was allowed to proceed for 1 hour at 37° C. in a 96-microwell plate. After completion of the reaction, 26.65% trichloroacetic acid and 3.33 mg/ml dUMP were added to suspend the reaction. To the reaction mixture was added 220 μl of 11.4 mg/ml activated charcoal. The whole mixture was subjected to centrifugation, and the radioactivity in 100 μl of the supernatant was measured by liquid scintillation counter to determine the concentration required for 50% inhibiting the TS activity (ICa50), as shown in Table 1.

IC50 [2]	IC50 [3]	SMILES	IC50 [1]
9 µM	36 µM	Nc1nc(N)c2c(CCCc3ccc(C(=O)N[C@@H](CCC(=O)N[C@@H](CCC(=O)O)C(=O)O)C(=O)O)cc3)c[nH]c2n1 [Ex. 6, [N-[4-[3-(2,4-diamino-7H-pyrrolo[2,3-d]pyrimidin-5-yl)propyl]benzoyl]-γ-L-glutamyl]-L-glutamic acid]	0.61 µM
0.4 µM	20 µM	Nc1nc(N)c2c(CCCc3ccc(C(=O)N[C@@H](CCC(=O)N[C@@H](CCC(=O)N[C@@H](CCC(=O)N[C@@H](CCC(=O)N[C@@H](CCC(=O)O)C(=O)O)C(=O)O)C(=O)O)C(=O)O)C(=O)O)cc3)c[nH]c2n1 [Ex. 9, [N-[4-[3-(2,4-diamino-7H-pyrrolo[2,3-d]pyrimidin-5-yl)propyl]benzoyl]-γ-L-glutamyl]-γ-L-glutamyl-γ-L-glutamyl-γ-L-glutamyl-L-glutamic acid]	
0.2 µM	20 µM	Nc1nc(N)c2c(CCCc3ccc(C(=O)N[C@@H](CCC(=O)N[C@@H](CCC(=O)N[C@@H](CCC(=O)N[C@@H](CCC(=O)N[C@@H](CCC(=O)N[C@@H](CCC(=O)O)C(=O)O)C(=O)O)C(=O)O)C(=O)O)C(=O)O)C(=O)O)cc3)c[nH]c2n1 [Ex. 10, [N-[4-[3-(2,4-diamino-7H-pyrrolo[2,3-d]pyrimidin-5-yl)propyl]benzoyl]-γ-L-glutamyl]-γ-L-glutamyl-γ-L-glutamyl-γ-L-glutamyl-γ-L-glutamyl-L-glutamic acid]	

SMILES	IC50 [2]	IC50 [3]	IC50 [1]
Nc1nc(N)c2c(CCCc3ccc(C(=O)N[C@@H](CCC(=O)N[C@@H](CCC(=O)N[C@@H](CCC(=O)O)C(=O)O)C(=O)O)C(=O)O)cc3)c[nH]c2n1 [Ex. 7, [N-[4-[3-(2,4-diamino-7H-pyrrolo[2,3-d]pyrimidin-5-yl)propyl]benzoyl]-γ-L-glutamyl]-γ-L-glutamyl-L-glutamic acid]	6 µM	40 µM	0.58 µM
Nc1nc(N)c2c(CCCc3ccc(C(=O)N[C@@H](CCC(=O)N[C@@H](CCC(=O)N[C@@H](CCC(=O)O)C(=O)O)C(=O)O)C(=O)O)cc3)c[nH]c2n1 [Ex. 8, [N-[4-[3-(2,4-diamino-7H-pyrrolo[2,3-d]pyrimidin-5-yl)propyl]benzoyl]-γ-L-glutamyl]-γ-L-glutamyl-γ-L-glutamic acid]	0.6 µM	21 µM	
